In test [1] the test system is F-duplex-T (DNA, hairpin, Spacer18 (hexaethylene glycol) between 10 and 11) TATAGCTATATATAGCTATA
The test can be described thus: FRET melting. The note with it: 5 mM K+, 50 mM Li+; 5 mM lithium cacodylate, pH 7.4; compound 0.2 μM, DNA 0.2 μM; no increment above error.

Test [2] relates to c-myc (DNA, G4) TGAGGGTGGGTAGGGTGGGTAA
The experiment in a line: fluorescent intercalator displacement. The note with it: 100 mM K+; 10 mM lithium cacodylate, pH 7.4; thiazole orange 0.5 μM displaced; DNA 0.25 μM.

The subject of test [3] is ds26 (DNA, duplex) CAATCGGATCGAATTCGATCCGATTG
The test can be described thus: fluorescent intercalator displacement. The following applies: 100 mM K+; 10 mM lithium cacodylate, pH 7.4; thiazole orange 0.75 μM displaced; DNA 0.25 μM; nearly 10-fold weaker than c-myc.

In test [4] the test system is ht21 (DNA, G4) GGGTTAGGGTTAGGGTTAGGG
The test can be described thus: fluorescent intercalator displacement. The following applies: 100 mM K+; 10 mM lithium cacodylate, pH 7.4; thiazole orange 0.5 μM displaced; DNA 0.25 μM; nearly 6-fold weaker than c-myc.

The text below walks through data of article PMC5768759 (2018).

Each structure is given as a SMILES string.

For `NCCCCCCCCCCN.[Cl-].[Cl-].[Pt+2].[Pt+2].c1ccc(-c2ccnc3c2ccc2c(-c4ccccc4)ccnc23)cc1.c1ccc(-c2ccnc3c2ccc2c(-c4ccccc4)ccnc23)cc1`, the binding entry in test [1] is “no”. On to `NCCCCCCCCCN.[Cl-].[Cl-].[Pt+2].[Pt+2].c1ccc(-c2ccnc3c2ccc2c(-c4ccccc4)ccnc23)cc1.c1ccc(-c2ccnc3c2ccc2c(-c4ccccc4)ccnc23)cc1`, for which the DC50 amounted to 200 nM in test [2], 1840 nM in test [3] and 1170 nM in test [4]. Besides, in test [1], the binding entry was “no”. Turning to `NCCCCCCCCN.[Cl-].[Cl-].[Pt+2].[Pt+2].c1ccc(-c2ccnc3c2ccc2c(-c4ccccc4)ccnc23)cc1.c1ccc(-c2ccnc3c2ccc2c(-c4ccccc4)ccnc23)cc1`, the binding result in test [1] is recorded as “no”. The same measure, in the same setting: under `NCCCCCCCN.[Cl-].[Cl-].[Pt+2].[Pt+2].c1ccc(-c2ccnc3c2ccc2c(-c4ccccc4)ccnc23)cc1.c1ccc(-c2ccnc3c2ccc2c(-c4ccccc4)ccnc23)cc1` stands “no”.
